The test system of test [1] is EBV-transformed B cells expressing HLA-DR. Put plainly: Cellular peptide loading assay (CLSM uptake). It is filed as cell-based, human. The settings on record: 10 µM, 2 h at 37°C, excitation 488 nm. As for the experimental part:
To validate the ability of FITC-labeled TP5 to load on EBV-transformed B cells expressing HLA-DR, a qualitative CLSM assay was used to examine the fluorescent signal of EBV-transformed B cells. The surface fluorescence was hardly observed from the cells in the absence of FITC-labeled TP5 at the excitation of 488 nm (Fig. 1A).
We harvested 3×10^5 cells, washed twice with phosphate-buffered saline (PBS) buffer (pH 7.4) supplemented with 0.1% BSA and 0.05% NaN3. Ten µM FITC- labeled TP5 was added to the treated cells in PBS (pH 7.4) containing 1% BSA (binding buffer), then incubated for 2 h at 37°C. Thereafter, the cells were washed twice and resuspended in 500 µl PBS, followed by CLSM analysis using Leica Microsystems (TCS SP2, Heidelberg, Germany).

Test [2] concerns HLA-DR on the surface of EBV-transformed B cells. Put plainly: Direct binding of FITC-labeled TP5 to EBV-transformed B cells (flow cytometry). Set-up: species or system human. On the procedure: Therefore, a quantitative flow cytometric assay was used to get a better insight into the binding affinity of TP5 to HLA-DR on the surface of EBV-transformed B cells. […] Simultaneously, a correlation with R^2 = 0.9903 and a slope of 0.01311 were obtained. We then compared the specific binding of FITC-labeled TP5 to HLA-DR.
EBV-transformed B cells expressing HLA-DR molecules were maintained in RPMI 1640 containing 2 mM L-glutamine (HyClone Laboratories, UT, USA) supplemented with 10% standard FBS (HyClone Laboratories, UT, USA) at 37°C and in 5% CO2. Expression of HLA-DR was verified using mAb-DR L243 labeled with FITC (Pharmingen, San Diego, USA), by incubation for 45 min on ice followed by CLSM and FCM.
EBV-transformed B cells (3×10^5 per sample) were incubated with various concentrations of FITC-labeled TP5 in binding buffer for 2 h at 37°C. Thereafter, the cells were washed twice and resuspended in 500 µl PBS, followed by flow cytometric analysis using a FACSCan analyzer (Becton Dickinson Immunochemical Systems, Mountain View, USA). A total of ten thousand events were acquired for each sample. The MFI was used to evaluate the binding ability of FITC-labeled TP5 to APC.

No end group written: not given here.

For the substance “FITC-labeled TP5: TP5 conjugated with fluorescein isothiocyanate (FITC) (RKDVY; also: FITC label, position not given here)”, in test [1], the “surface fluorescence of cells (uptake)” value is on record as “strong surface fluorescence”. For the same substance, in test [2] (flow cytometry histogram of fluorescence intensities, EBV-transformed B cells (Fig. 4)), the “cells stained above the background” value worked out at 94%. The “increase in mean fluorescence intensity (MFI) above background” value in test [2] (flow cytometry, EBV-transformed B cells versus PBS alone (Fig. 4)) is recorded as “approximately 3 orders of magnitude”.

Values taken from PMC2137936, “Molecular Analysis of Thymopentin Binding to HLA-DR Molecules” (PLoS ONE, 2007).
